≈ marks a conversion by molar mass, not a printed value. Like-named read-outs stand apart in the source and are kept apart here. Values belong to the compound of their own block, whether it stands above or below them.
Legend:
HIV-1 (RF) = assay: HIV RNA assay (microplate based compound evaluation in HIV-1 infected MT-2 cells); assay type: cell-based
Description: DNA Plasmids and In Vitro RNA Transcripts
Plasmid pDAB 72 containing both gag and pol sequences of BH10 (bp 113-1816) cloned into PTZ 19R was prepared according to Erickson-Viitanen et al. AIDS Research and Human Retroviruses 1989, 5, 577. The plasmid was linearized with Bam HI prior to the generation of in vitro RNA transcripts using the Riboprobe Gemini system II kit (Promega) with T7 RNA polymerase. Synthesized RNA was purified by treatment with RNase free DNAse (Promega), phenol-chloroform extraction, and ethanol precipitation. RNA transcripts were dissolved in water, and stored at -70° C. The concentration of RNA was determined from the A260.
Biotinylated capture probes were purified by HPLC after synthesis on an Applied Biosystems (Foster City, Calif.) DNA synthesizer by addition of biotin to the 5' terminal end of the oligonucleotide, using the biotinphosphoramidite reagent of Cocuzza, Tet. Lett. 1989, 30, 6287. The gag biotinylated capture probe (5-biotin-[…] 3') was complementary to nucleotides 889-912 of HXB2 and the pol biotinylated capture probe (5'-biotin --[…] 3') was complementary to nucleotides 2374-2395 of HXB2. Alkaline phosphatase conjugated oligonucleotides used as reporter probes were prepared by Syngene (San Diego, Calif.). The pol reporter probe (5' […] 3') was complementary to nucleotides 2403-2425 of HXB2. The gag reporter probe (5' […] 3') was complementary to nucleotides 950-973 of HXB2. All nucleotide positions are those of the GenBank Genetic Sequence Data Bank as accessed through the Genetics Computer Group Sequence Analysis Software Package (Devereau Nucleic Acids Research 1984, 12, 387). The reporter probes were prepared as 0.5 μM stocks in 2×SSC(0.3M NaCl, 0.03M sodium citrate), 0.05M Tris pH 8.8, 1 mg/mL BSA. The biotinylated capture probes were prepared as 100 μM stocks in water.
Streptavidin Coated Plates
Nunc-immunomodule microtiter plate strips were coated by addition of 200 μL of streptavidin (30 μg/mL, Scripps, La Jolla, Calif.) in freshly prepared 10 mM sodium carbonate (pH 9.6). Plates were incubated overnight at 4° C. Streptavidin solution was aspirated from the wells and a blocking buffer composed of phosphate buffered saline (PBS), 20 mg/mL bovine serum albumin (crystalline, nuclease and protease free, Calbiochem) and 100 mg/mL lactose (Sigma) was added to the plates for 3 hrs at room temperature. Blocking buffer was removed from the wells, which were allowed to dry overnight at room temperature and subsequently stored at 4° C. in zip lock bags with desiccant. For the majority of the compound evaluation experiments, streptavidin coated plates were obtained from Du Pont Biotechnology Systems (Boston, Mass.).
MT-2, CEM, and H9 cells were maintained in RPMI 1640 supplemented with 5% fetal calf serum (FCS), 2 mM L-glutamine and 50 μg/mL gentamycin, all from Gibco. Laboratory strains of HIV-1 (RF, MN and IIIB) were propagated in H9 cells in the same medium. Virus stocks were prepared approximately 1 month after acute infection of H9 cells by clarification of the tissue culture medium and storage of aliquots at -70° C. Infectious titers of HIV-1 (RF) stocks were 1-3×10^7 PFU (plaque forming units)/mL as measured by plaque assay on MT-2 cells (see below). Each aliquot of virus stock used for infection was thawed only once. In some cases, infected H9 cells were shifted to Dulbecco's modified Eagle's medium 3-10 days before collection of virus in order to generate virus stocks in medium with low biotin content. Clinical isolates of HIV that had been passaged once in MT-2 cells were used to infect fresh MT-2 cells in RPMI medium. Three days after infection, cells were pelleted, resuspended and culture continued in Dulbecco's modified Eagle's medium as above. Virus stocks of clinical isolates were prepared 10-15 days after infection when cytopathic effects were apparent in the culture. […]

HIV-1 protease = molecular target: T1, HIV-1 protease (HIV-1 M:B_HXB2R, UniProt P04585); assay: HIV protease inhibition assay (HPLC method); assay type: biochemical; conditions: pH 5.5, 30° C., 1 hr
T1 construct: cut from Gag-Pol polyprotein
Description: The Ki values in TABLE 1 were determined using the assay conditions described below under HIV Protease Inhibition Assay (HPLC Method). The Ki values are indicated as follows: +++=<10 nM; ++=10 nM to 1 μM; +=>[…].
HIV PROTEASE INHIBITION ASSAY (HPLC METHOD)
Protease: Inclusion bodies of E. coli harboring plasmid T1718R with a synthetic gene coding for a single-chain tethered dimer of HIV protease were prepared as described in Cheng et al. Proc. Natl. Acad. Sci. USA 1990, 87, 9660. Active protease was prepared as described therein by extraction with 67% acetic acid, dilution 33-fold with water, dialysis against water and then against a "refolding buffer" comprising 20 mM MES, 1 mM dithiothreitol and 10% glycerol, pH 5.5. Protease was stored as a stock preparation at 10 uM in refolding buffer.
Substrate: Peptide of the sequence aminobenzoyl-Ala-Thr-His-Gln-Val-Tyr-Phe(NO2)-Val-Arg-Lys-Ala containing p-nitrophenylalanine (Phe(NO2)), was prepared by solid phase synthesis as previously described (Cheng et al. Proc. Natl. Acad. Sci. USA 1990, 87, 9660). Stock solutions of 2 mM substrate were prepared in DMSO.
Inhibitory compounds were dissolved in sufficient DMSO to make 3 mM stock solutions. All further dilutions were prepared in "assay buffer" comprising 1M NaCl, 50 mM MES, pH 5.5, 1 mM EDTA, 1 mM DTT and 20% glycerol.
Enzyme reaction: To a 2 mL screw-cap centrifuge tube were added 50 uL protease (final concentration 0.25 nM) and 0.1 mL inhibitor compound (final concentration 0.1-12,500 nM). After 15 min preincubation at room temperature, the reaction was started by the addition of 0.05 mL substrate (final concentration 5 uM). Incubation was carried out at 30° C. for 1 hr. The reaction was stopped by addition of 1 mL of 0.1M ammonium hydroxide solution.
HPLC measurement of product formation: The product (aminobenzoyl-Ala-Thr-His-Gln-Val-Tyr) was separated from substrate on a Pharmacia MonoQ anion exchange column. The injection volume was 0.2 mL. The mobile phases comprised: solution A (20 mM tris HCl, pH 9.0, 0.02% sodium azide, 10% acetonitrile), and solution B (20 mM tris HCl, pH 9.0, 0.02% sodium azide, 0.5M ammonium formate, 10% acetonitrile). The mobile phases were pumped at 1 mL/min, with a gradient from 0 to 30% B in 5 min, 100% B for 4 min to wash the column, and a re-equilibration wash with A for 4 min. The retention time of the product was 3.6 min. Detection with a Shimadzu model RF535 fluorescence monitor was at 330 nm (excitation) and 430 nm (emission). The Ki was calculated from the formula Ki=I/(((Km+S-FA*S)/(FA*Km))-1) where I=inhibitor concentration, S=substrate concentration, FA=fractional activity=cm peak height with inhibitor/cm peak height without inhibitor and Km=Michaelis constant=20 uM.

HIV (3B) or HIV (RF) = assay: HIV yield reduction cell assay (plaque assay, MT-2 cells); assay type: cell-based; conditions: Human immunodeficiency virus 1, MT2, 72 h, 3 days
Description: HIV YIELD REDUCTION CELL ASSAY
The following procedure is additionally described in Smallheer et al. Antiviral Chemistry and Chemotherapy 1993, 4(1), 27.
MT-2, a human T-cell line, was cultured in RPMI medium supplemented with 5% (v/v) heat inactivated fetal calf serum (FCS), 2 mM L-glutamine and 50 μg/mL gentamycin (later two compounds available from Gibco) Human immunodeficiency virus strains, HIV (3B) and HIV (RF) were propagated in H-9 cells in RPMI with 5% FCS. Poly-L-lysine (Sigma) coated cell culture plates were prepared according to the method of Harada et al. Science 1985, 229 563. MTT, (3-(4,5-dimethyl-thiazol-2-yl)-2,5-diphenyltetrazolium bromide), was obtained from Sigma.
Method: Test compounds were dissolved in dimethylsulfoxide to 5 mg/mL and serially diluted into RPMI medium to ten times the desired final concentration. […]
The virus titers of the progeny virus produced in the presence or absence of test compounds were determined by plaque assay. […] Clear plaques on a purple background were counted and the number of plaque forming units of virus was calculated for each sample. The antiviral activity of test compounds was determined by the percent reduction in the virus titer with respect to virus grown in the absence of inhibitor. The IC90 values in TABLE 2 were determined using the assay conditions described above under HIV Yield Reduction Assay. […]

[1] = Human immunodeficiency virus 1, MT2, 72 h, HIV RNA assay, HIV-1 (RF) infected MT-2 cells, 3 days, 37° C., read-out: IC90

Structure (SMILES): CNc1cccc(CN2[C@H](Cc3ccccc3)[C@H](O)[C@H]3OP2(=O)N(Cc2cccc(NC)c2)[C@@H]3Cc2ccccc2)c1 [Example 6D]
IC90 (HIV-1 (RF); [1]): < 10 µg/mL
Ki (HIV-1 protease): 10 to 1000 nM

Structure (SMILES): O=P12O[C@H]([C@@H](O)[C@@H](Cc3ccccc3)N1Cc1ccc(CO)cc1)[C@@H](Cc1ccccc1)N2Cc1ccc(CO)cc1 [Example 5C, (3-endo,4-endo,6-exo)-2,7-Bis(4-(hydroxymethyl)phenylmethyl)-3,6-bis(phenylmethyl)-8-oxa-2,7-diaza-1-phosphabicyclo[3.2.1]octan-4-ol 1-oxide]
IC90 (HIV (3B) or HIV (RF)): < 10 µg/mL
IC90 (HIV-1 (RF); [1]): < 10 µg/mL
Ki (HIV-1 protease): < 10 nM

Structure (SMILES): O=P12O[C@H]([C@@H](O)[C@@H](Cc3ccccc3)N1Cc1ccc3ccccc3c1)[C@@H](Cc1ccccc1)N2Cc1ccc2ccccc2c1 [Example 2C, (3-endo,4-endo,6-exo)-2,7-Bis(2-naphthalenylmethyl)-3,6-bis(phenylmethyl)-8-oxa-2,7-diaza-1-phosphabicyclo[3.2.1]octan-4-ol 1-oxide]
IC90 (HIV-1 (RF); [1]): > 50 µg/mL
Ki (HIV-1 protease): 10 to 1000 nM

Structure (SMILES): O=P12O[C@H]([C@@H](O)[C@@H](Cc3ccccc3)N1Cc1ccccc1)[C@@H](Cc1ccccc1)N2Cc1ccccc1 [Example 4E, (3-endo,4-endo,6-exo)-2,3,6,7-tetrakis (phenylmethyl)-8-oxa-2,7-diaza-1-phosphabicyclo[3.2.1]octan-4-ol 1-oxide]
IC90 (HIV-1 (RF); [1]): 10 to 100 µg/mL (≈ 19.1 to 191 µM)
Ki (HIV-1 protease): 10 to 1000 nM

Structure (SMILES): O=P12O[C@H]([C@@H](O)[C@@H](Cc3ccccc3)N1Cc1ccc(O)cc1)[C@@H](Cc1ccccc1)N2Cc1ccc(O)cc1 [Example 7D, (3-endo,4-endo,6-exo)-2,7-bis(4-hydroxyphenylmethyl)-3,6-bis(phenylmethyl)-8-oxa-2,7-diaza-1-phosphabicyclo[3.2.1]octan-4-ol 1-oxide]
IC90 (HIV-1 (RF); [1]): < 10 µg/mL
Ki (HIV-1 protease): < 10 nM

IC90 (HIV-1 (RF); Human immunodeficiency virus 1, MT2, HIV-1 (RF), MT-2 cells, virus dilution selected to give this value, read-out: IC90 value (concentration of compound required to reduce the HIV RNA level by 90%)): 0.2 µg/mL (≈ 0.947 µM)
Structure (SMILES): Nc1ccn([C@H]2CC[C@@H](CO)O2)c(=O)n1 [ddC, dideoxycytidine, reference compound]

Structure (SMILES): CCCCN1[C@H](Cc2ccccc2)[C@H](O)[C@H]2OP1(=O)N(CCCC)[C@@H]2Cc1ccccc1 [Example 3C, (3-endo,4-endo,6-exo)-2,7-Bis(butyl)-3,6-bis(phenylmethyl)-8-oxa-2,7-diaza-1-phosphabicyclo[3.2.1]octan-4-ol 1-oxide]
IC90 (HIV-1 (RF); [1]): > 50 µg/mL
Ki (HIV-1 protease): 10 to 1000 nM

Structure (SMILES): O=P12O[C@H]([C@@H](O)[C@@H](Cc3ccccc3)N1Cc1cccc(CO)c1)[C@@H](Cc1ccccc1)N2Cc1cccc(CO)c1 [Example 8C, (3-endo,4-endo,6-exo)-2,7-Bis(3-(hydroxymethyl)phenylmethyl)-3,6-bis(phenylmethyl)-8-oxa-2,7-diaza-1-phosphabicyclo[3.2.1]octan-4-ol 1-oxide]
IC90 (HIV-1 (RF); [1]): < 10 µg/mL
Ki (HIV-1 protease): < 10 nM

Structure (SMILES): O=P12O[C@H]([C@@H](O)[C@@H](Cc3ccccc3)N1CC1CC1)[C@@H](Cc1ccccc1)N2CC1CC1 [Example 1F, (3-endo,4-endo,6-exo)-2,7-Bis(cyclopropylmethyl)-3,6-bis(phenylmethyl)-8-oxa-2,7-diaza-1-phosphabicyclo [3.2.1]octan-4-ol 1-oxide]
IC90 (HIV-1 (RF); [1]): 10 to 100 µg/mL (≈ 22.1 to 221 µM)
Ki (HIV-1 protease): 10 to 1000 nM
